Measured values reported in PMC9296036, “A peptide interfering with the dimerization of oncogenic KITENIN protein and its stability suppresses colorectal tumour progression” (Clinical and Translational Medicine, 2022).
Ends that are not written are not given here.

Target: T1, KITENIN (Homo sapiens, UniProt Q8TAA9)
T1 construct: decreased endogenous KITENIN protein levels in non‐transfected HCT116 and CT‐26 cells; endogenous in cells; host or cells: HCT116
T1 sequence (Q8TAA9 1-524): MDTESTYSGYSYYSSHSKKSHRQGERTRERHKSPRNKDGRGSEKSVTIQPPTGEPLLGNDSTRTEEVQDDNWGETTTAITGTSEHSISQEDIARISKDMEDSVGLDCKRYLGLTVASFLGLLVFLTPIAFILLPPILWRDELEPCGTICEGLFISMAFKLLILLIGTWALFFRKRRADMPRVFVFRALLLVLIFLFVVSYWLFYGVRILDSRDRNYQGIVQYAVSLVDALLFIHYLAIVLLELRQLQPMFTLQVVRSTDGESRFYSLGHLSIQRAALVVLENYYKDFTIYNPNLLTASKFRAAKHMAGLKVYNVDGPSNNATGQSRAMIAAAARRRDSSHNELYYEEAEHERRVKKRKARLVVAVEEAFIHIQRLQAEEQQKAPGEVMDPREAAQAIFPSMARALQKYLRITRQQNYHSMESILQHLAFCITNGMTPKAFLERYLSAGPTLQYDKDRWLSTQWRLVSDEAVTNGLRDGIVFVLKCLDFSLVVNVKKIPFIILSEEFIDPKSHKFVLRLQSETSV
Assay: Endogenous KITENIN protein level in HCT116 cells (immunoblot)
Format: cell-based
Conditions: non-transfected HCT116 cells, KDIP 1 μM, 12 h
Excerpt: Antibodies against the following proteins were obtained from the indicated suppliers: Na^+/K^+ ATPase, GFP and tubulin (Santa Cruz Biotechnology); c‐Jun, p‐c‐Jun, ERK, p‐ERK, c‐MET, p‐c‐MET and GST (Cell Signaling Technology); V5, Myc (MBL); HA and β‐actin (Sigma); KITENIN (Atlas); His and RACK1, LC3, p62, Myo10, and eukaryotic elongation factor 2 (eEF2) (Abcam). They were used with appropriate secondary antibodies (Thermo). For transient transfection analyses, Caco2, HCT116 and 293T cells were transfected with various plasmids and harvested for immunoblot analysis 48 h after transfection. For most assays using stable cell lines, mixed polyclonal cells were used to exclude clonal variation. […]
FIGURE 2 KAI1 C‐terminal interacting tetraspanin (KITENIN) dimerization‐interfering peptide (KDIP) suppresses KITENIN‐induced enhanced cell invasion through the inhibition of the homodimerization of KITENIN. […] After 48 h of treatment, KITENIN transcripts in cells were analysed by the 2^−ΔΔ ^CT method using Q‐PCR. […] Caco2 cells were co‐transfected with KITENIN‐V5/Myc and treated with or without KDIP or scrambled peptide (scr) and were immunoprecipitated with anti‐V5 antibody and detected by indicated antibodies. Numerals indicated a quantification of the MYC bands normalized to the corresponding V5 bands (left panel). […] Numerals indicated a quantification of the bands observed (left panel). […]

YARVRRRGPRRWRLVSDEAV [KDIP]
endogenous KITENIN protein level (in words): decreased
